Measured values: paper PMC10224441, “Structural Manipulations of Marine Natural Products Inspire a New Library of 3-Amino-1,2,4-Triazine PDK Inhibitors Endowed with Antitumor Activity in Pancreatic Ductal Adenocarcinoma” (Marine Drugs, 2023)

Key:
recombinant human PDK4 = target: T1, recombinant human PDK4 (Homo sapiens, UniProt Q16654); assay: PDK4 ADPGlo Kinase Assay; format: biochemical; details: 1.5 µM compound, 30 min, room temperature
T1 construct: purchased Abcam
Procedure: The ability of the tested compounds to hamper the activity of PDK1-4 isoforms was firstly evaluated by means of a chemioluminescent assay, the ADPGlo™ Kinase Assay kit (Promega Corporation, Madison, WI, USA). The results obtained by incubating PDK1-4 isoforms for 30 min at room temperature with 1.5 µM of tested compounds are depicted in Figure 3 panel A as a heat-map summary of the inhibition percentage on PDK1-4 enzymatic activity. All the newly synthesized compounds were able to inhibit the pyruvate dehydrogenase kinases, although to a different extent and showing a preferential activity towards the PDK1 and PDK4 isoforms. […] Conversely, all tested 1,2,4-triazin-3-amines were barely effective in blocking PDK2 activity at 1.5 µM concentration. In addition, IC50 values on the PDK1 isoform were also calculated for all synthesized derivatives and the results are shown in Table 2.
(§1) The in vitro inhibitory activity of tested compounds on recombinant human PDK1-4 isoforms (Abcam, Cambridge, MA, USA) was evaluated by using the ADPGlo™ Kinase Assay kit from Promega (Promega Corporation, Madison, WI, USA) following the instructions of the manufacturer, as previously described.

PSN-1 spheroids = assay: 3D spheroid cytotoxicity, acid phosphatase (APH) assay, PSN-1; format: cell-based; details: Homo sapiens, PSN1, 72 h, acid phosphatase (APH) test, read-out: IC50 (µM) ± S.D. PSN-1 (3D spheroids)
Procedure: Prompted by these encouraging results, we also screened the newly developed 1,2,4-triazine compounds against 3D spheroids of PDAC KRAS wild-type and mutant cells, to further estimate their anticancer potential in a more predictive environment. […] The PDAC cancer spheroids were treated with tested compounds for 72 h, and cell viability was assessed by means of the acid phosphatase (APH) assay (Table 3). The efficacy of gemcitabine as well as of DCA and DAP was assessed under the same experimental conditions.
Spheroid cultures were obtained by seeding 2.5 × 10^3 PSN-1 cancer cells/well in a round-bottom non-treated tissue culture 96-well plate (Greiner Bio-one, Kremsmünster, Austria) in phenol red-free RPMI-1640 medium (Sigma Chemical Co, St. Louis, MO, USA) containing 10% fetal calf serum and supplemented with 20% methylcellulose stock solution.
An APH-modified assay was used for determining cell viability in 3D spheroids, as previously described. Briefly, the pre-seeded spheroids were treated with fresh medium containing the compound to be studied at the appropriate concentration (range 2.5–200 μM). Triplicate cultures were established for each treatment. After 72 h, each well was treated with 100 μL of the assay buffer (0.1 M sodium acetate, 0.1% Triton-X-100, supplemented with ImmunoPure p-nitrophenyl phosphate; Sigma Chemical Co.) and, following 3 h of incubation, 10 μL of 1 M NaOH solution were added. The inhibition of the cell growth induced by the tested compounds was detected by measuring the absorbance of each well at 405 nm, using a Bio-Rad 680 microplate reader. The mean absorbance for each drug dose was expressed as a percentage of the control untreated well absorbance (T/C) and plotted vs. drug concentration. IC50 values, the drug concentrations that reduce the mean absorbance at 405 nm 50% of those in the untreated control wells, were calculated by the four-parameter logistic (4-PL) model. The evaluation was based on means from at least four independent experiments.

[1] = system: PSN-1 cells (KRAS-mutant PDAC); assay: 2D cytotoxicity, MTT assay, PSN-1; format: cell-based; details: Homo sapiens, PSN1; 72 h exposure, MTT test, 2D culture; read-out: IC50 (µM) ± S.D. PSN-1 (2D)
Procedure: (§2) All newly developed 1,2,4-amino-triazine compounds were screened for their cytotoxic activity against two human PDAC cell lines, namely, a KRAS-wild-type PDAC cell line (BxPC-3 cells) and a KRAS-mutant PDAC cell line (PSN-1 cells). […] The cytotoxicity parameters, expressed in terms of IC50 and obtained after 72 h of drug exposure by MTT assay, are reported in Table 3.
(§3) All tested compounds were dissolved in DMSO just before the experiment, and a calculated amount of drug solution was added to the cell growth medium to a final solvent concentration of 0.5%, which had no detectable effects on cell viability.
(§4) Human pancreatic PSN-1 and BxPC-3 carcinoma cell lines were obtained by American Type Culture Collection (ATCC, Rockville, MD, USA). Cell lines were maintained in the logarithmic phase at 37 °C in a 5% carbon dioxide atmosphere using RPMI-1640 medium (EuroClone) containing 10% fetal calf serum (EuroClone, Milan, Italy), antibiotics (50 units/mL penicillin and 50 μg/mL streptomycin) and 2 mM l-glutamine.
(§5) The growth inhibitory effect on tumor cells was evaluated by means of MTT assay. Briefly, 5 × 10^3 cells/well were seeded in 96-well microplates in a growth medium (100 μL). After 24 h, the medium was removed and replaced with a fresh one containing the compound to be studied at the appropriate concentration. Triplicate cultures were established for each treatment. After 72 h, each well was treated with 10 μL of a 5 mg/mL MTT saline solution, and following 5 h of incubation, 100 μL of a sodium dodecyl sulfate (SDS) solution in HCl 0.01 M was added. After overnight incubation, cell growth inhibition was detected by measuring the absorbance of each well at 570 nm using a Bio-Rad 680 microplate reader. The mean absorbance for each drug dose was expressed as a percentage of the control untreated well absorbance and plotted vs. drug concentration. IC50 values, the drug concentrations that reduce the mean absorbance at 570 nm to 50% of those in the untreated control wells, were calculated by the four-parameter logistic (4-PL) model. The evaluation was based on means from at least four independent experiments.

recombinant human HSP90 = recombinant human HSP90 (Homo sapiens, UniProt P07900); assay: HSP90 inhibition assay (Transcreener ADP kit); format: biochemical; details: for inhibition of HSP90 enzyme activity: 1.5 µM compound; for IC50: isolated HSP90, four-parameter logistic model, mean of 3 independent experiments, read-out: IC50 (µM) ± S.D. HSP90
Procedure: Since the ATP binding pockets in PDKs and HSP90 are similar and taking into consideration that these 1,2,4-triazine derivatives conserved a chemical scaffold resembling that of the well-known Hsp90 inhibitor Ganetespib, the most performant PDK inhibitors 4d, 4f, 4h, 5d, 5f, 5h and 5j were also screened for their ability to target HSP90.
The in vitro inhibitory activity of tested compounds on recombinant human HSP90 was assessed by The Transcreener™ ADP kit (Bellbrook Labs, Madison, WI, USA) according to the manufacturer’s protocol as previously described.

[2] = system: BxPC-3 cells (KRAS-wild-type PDAC); assay: 2D cytotoxicity, MTT assay, BxPC-3; format: cell-based; details: Homo sapiens, BXPC-3; 72 h exposure, MTT test, 2D culture; read-out: IC50 (µM) ± S.D. BxPC-3 (2D)
Procedure: as §2, §3, §4, §5

BxPC-3 spheroids = assay: 3D spheroid cytotoxicity, acid phosphatase (APH) assay, BxPC-3; format: cell-based; details: Homo sapiens, 72 h, acid phosphatase (APH) test, read-out: IC50 (µM) ± S.D. BxPC-3 (3D spheroids)
recombinant human PDK1 = target: T2, recombinant human PDK1 (Homo sapiens, UniProt Q15118); assay: PDK1 ADPGlo Kinase Assay; format: biochemical; details: for inhibition of PDK1 enzymatic activity: 1.5 µM compound, 30 min, room temperature; for IC50: isolated PDK1 isoform, four-parameter logistic model, mean of 3 independent experiments, read-out: IC50 (µM) ± S.D. PDK1
T2 construct: purchased Abcam
Procedure: The ability of the tested compounds to hamper the activity of PDK1-4 isoforms was firstly evaluated by means of a chemioluminescent assay, the ADPGlo™ Kinase Assay kit (Promega Corporation, Madison, WI, USA).
as §1

T2 sequence (Q15118 29-436): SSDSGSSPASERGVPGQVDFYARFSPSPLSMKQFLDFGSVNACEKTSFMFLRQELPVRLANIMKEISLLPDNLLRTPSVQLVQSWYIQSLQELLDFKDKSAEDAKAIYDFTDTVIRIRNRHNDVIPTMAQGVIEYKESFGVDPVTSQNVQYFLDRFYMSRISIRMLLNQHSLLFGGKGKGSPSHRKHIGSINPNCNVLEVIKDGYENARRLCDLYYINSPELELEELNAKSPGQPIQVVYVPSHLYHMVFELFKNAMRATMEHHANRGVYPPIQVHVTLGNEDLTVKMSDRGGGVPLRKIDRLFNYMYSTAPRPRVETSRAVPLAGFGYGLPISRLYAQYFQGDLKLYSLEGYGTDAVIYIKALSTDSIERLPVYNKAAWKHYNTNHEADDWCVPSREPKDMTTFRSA
T1 sequence (Q16654 whole entry): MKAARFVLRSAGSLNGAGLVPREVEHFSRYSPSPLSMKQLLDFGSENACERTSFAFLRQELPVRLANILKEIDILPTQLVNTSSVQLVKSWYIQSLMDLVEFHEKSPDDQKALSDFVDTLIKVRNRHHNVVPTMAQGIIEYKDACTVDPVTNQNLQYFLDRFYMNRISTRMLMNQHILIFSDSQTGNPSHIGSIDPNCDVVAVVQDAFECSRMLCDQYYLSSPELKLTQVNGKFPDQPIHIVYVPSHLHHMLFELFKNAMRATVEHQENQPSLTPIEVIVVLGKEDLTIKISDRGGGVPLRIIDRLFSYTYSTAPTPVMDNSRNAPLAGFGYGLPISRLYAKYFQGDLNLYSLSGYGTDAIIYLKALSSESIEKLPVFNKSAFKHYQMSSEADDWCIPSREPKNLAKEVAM

For `Cn1cc(-c2nnc(N)nc2-c2cn(C)c3ncc(Br)cc23)c2cc(Br)ccc21` [4d, 6-(5-Bromo-1-methyl-1H-indol-3-yl)-5-(5-bromo-1-methyl-1H-pyrrolo[2,3-b]pyridin-3-yl)-1,2,4-triazin-3-amine], the “inhibition of PDK4 enzymatic activity” value (recombinant human PDK4) was “completely suppress”, the IC50 (PSN-1 spheroids) was 103 ± 9.1 µM and the IC50 [1] was 23.4 ± 3.7 µM. For the same compound, the “inhibition of HSP90 enzyme activity” value (recombinant human HSP90) was “completely abolish”, the IC50 (recombinant human HSP90) was 0.06 ± 0.02 µM and the IC50 [2] was 30.2 ± 6.2 µM. For the same compound, the IC50 (BxPC-3 spheroids) was 176 ± 15.7 µM, the “inhibition of PDK1 enzymatic activity” value (recombinant human PDK1) was “totally hampered” and the IC50 (recombinant human PDK1) was 0.04 ± 0.02 µM.
For `Cn1cc(-c2nnc(N)nc2-c2cn(C)c3ncc(Br)cc23)c2cc(Cl)ccc21` [4f, 5-(5-Bromo-1-methyl-1H-pyrrolo[2,3-b]pyridin-3-yl)-6-(5-chloro-1-methyl-1H-indol-3-yl)-1,2,4-triazin-3-amine], the IC50 (PSN-1 spheroids) was 162 ± 6.8 µM, the IC50 [1] was 11.3 ± 1.8 µM and the “inhibition of HSP90 enzyme activity” value (recombinant human HSP90) was “completely abolish”. For the same compound, the IC50 (recombinant human HSP90) was 0.1 ± 0.03 µM, the IC50 [2] was 18.4 ± 1.4 µM and the IC50 (BxPC-3 spheroids) was 169 ± 12.4 µM. The melting point was 262.1 °C, the “inhibition of PDK1 enzymatic activity” value (recombinant human PDK1) was “totally hampered” and the IC50 (recombinant human PDK1) was 0.12 ± 0.04 µM.
With `Cn1cc(-c2nnc(N)nc2-c2cn(C)c3ncc(Br)cc23)c2cc(F)ccc21` [4h, 5-(5-Bromo-1-methyl-1H-pyrrolo[2,3-b]pyridin-3-yl)-6-(5-fluoro-1-methyl-1H-indol-3-yl)-1,2,4-triazin-3-amine] the IC50 (PSN-1 spheroids) was 77.8 ± 3.8 µM, the IC50 [1] was 17.5 ± 2.8 µM and the “inhibition of HSP90 enzyme activity” value (recombinant human HSP90) was “completely abolish”. It also gave an IC50 [2] of 22.3 ± 2.4 µM, an IC50 (BxPC-3 spheroids) of 188 ± 14.4 µM and a melting point of 155.6 °C. The “inhibition of PDK1 enzymatic activity” value (recombinant human PDK1) was “totally hampered” and the IC50 (recombinant human PDK1) was 0.06 ± 0.02 µM.
With `Cn1cc(-c2nc(N)nnc2-c2cn(C)c3ncc(Br)cc23)c2cc(Br)ccc21` [5d, 5-(5-Bromo-1-methyl-1H-indol-3-yl)-6-(5-bromo-1-methyl-1H-pyrrolo[2,3-b]pyridin-3-yl)-1,2,4-triazin-3-amine] the “inhibition of PDK4 enzymatic activity” value (recombinant human PDK4) was “completely suppress”, the IC50 (PSN-1 spheroids) was 216 ± 13.6 µM and the IC50 [1] was 21.3 ± 3.5 µM. For the same compound, the “inhibition of HSP90 enzyme activity” value (recombinant human HSP90) was “completely abolish”, the IC50 (recombinant human HSP90) was 0.07 ± 0.01 µM and the IC50 [2] was 26.7 ± 6.1 µM. The IC50 (BxPC-3 spheroids) was 198 ± 14.2 µM, the melting point was 333.7 °C and the “inhibition of PDK1 enzymatic activity” value (recombinant human PDK1) was “totally hampered”. It also gave an IC50 (recombinant human PDK1) of 0.05 ± 0.02 µM.
In the case of `Cn1cc(-c2nc(N)nnc2-c2cn(C)c3ncc(Br)cc23)c2cc(Cl)ccc21` [5f, 6-(5-Bromo-1-methyl-1H-pyrrolo[2,3-b]pyridin-3-yl)-5-(5-chloro-1-methyl-1H-indol-3-yl)-1,2,4-triazin-3-amine], the “inhibition of PDK4 enzymatic activity” value (recombinant human PDK4) is reported as “completely suppress”, the IC50 (PSN-1 spheroids) is reported as 213 ± 14.4 µM and the IC50 [1] is reported as 21.3 ± 4.4 µM. For the same compound, the “inhibition of HSP90 enzyme activity” value (recombinant human HSP90) was “completely abolish”, the IC50 (recombinant human HSP90) was 0.11 ± 0.04 µM and the IC50 [2] was 22.4 ± 3.2 µM. For the same compound, the IC50 (BxPC-3 spheroids) was 229 ± 17.2 µM, the melting point was 334.6 °C and the “inhibition of PDK1 enzymatic activity” value (recombinant human PDK1) was “totally hampered”. The IC50 (recombinant human PDK1) was 0.08 ± 0.02 µM.
For `Cn1cc(-c2nc(N)nnc2-c2cn(C)c3ncc(Br)cc23)c2cc(F)ccc21` [5h, 6-(5-Bromo-1-methyl-1H-pyrrolo[2,3-b]pyridin-3-yl)-5-(5-fluoro-1-methyl-1H-indol-3-yl)-1,2,4-triazin-3-amine], the “inhibition of PDK4 enzymatic activity” value (recombinant human PDK4) was “completely suppress”, the IC50 (PSN-1 spheroids) was 132 ± 5.9 µM and the IC50 [1] was 27.4 ± 5.1 µM. For the same compound, the “inhibition of HSP90 enzyme activity” value (recombinant human HSP90) was “completely abolish”, the IC50 (recombinant human HSP90) was 0.09 ± 0.03 µM and the IC50 [2] was 0.05 ± 0.03 µM. For the same compound, the IC50 (BxPC-3 spheroids) was 208 ± 12.7 µM, the melting point was 311.1 °C and the “inhibition of PDK1 enzymatic activity” value (recombinant human PDK1) was “totally hampered”. It also gave an IC50 (recombinant human PDK1) of 0.05 ± 0.03 µM.
For `COc1ccc2c(c1)c(-c1nc(N)nnc1-c1cn(C)c3ncc(Br)cc13)cn2C` [5j, 6-(5-Bromo-1-methyl-1H-pyrrolo[2,3-b]pyridin-3-yl)-5-(5-methoxy-1-methyl-1H-indol-3-yl)-1,2,4-triazin-3-amine], the “inhibition of PDK4 enzymatic activity” value (recombinant human PDK4) was “completely suppress”, the IC50 (PSN-1 spheroids) was 89.7 ± 5.7 µM and the IC50 [1] was 0.1 ± 0.03 µM. For the same compound, the “decrease of HSP90 catalytic activity” value (recombinant human HSP90; 1.5 µM compound (equi-doses)) was 60–80%, the IC50 (recombinant human HSP90) was 0.18 ± 0.04 µM and the IC50 [2] was 0.04 ± 0.02 µM. The IC50 (BxPC-3 spheroids) was 79.5 ± 5.4 µM, the melting point was 269.8 °C and the “inhibition of PDK1 enzymatic activity” value (recombinant human PDK1) was “totally hampered”. The IC50 (recombinant human PDK1) was 0.04 ± 0.02 µM.
